Where two headings read alike, the source gives them in different places.
Key:
[1] = test system: Simian Virus 40 (SV-40); assay: Virus inactivation of SV-40 in RC-MAP (Example 1), TCID50 on CV-1 cells; assay type: cell-based; conditions: for inactivation effect (positive control TCID50 minus inactivated solution TCID50): 7 hours; for TCID50 of the inactivated solution: room temperature (in the dark) 7 hours, positive control 6.5 log10
Protocol: In a 400-mL CPDA blood bag in the blood bag system shown in FIG. 1, RC-MAP (concentrated erythrocyte preparation) was prepared from blood collected from healthy humans. Thereafter, 2 mL of RC-MAP was sampled in a 15-mL centrifuging tube aseptically, and 2 mL of 10^8 TCID50/mL (50% infection end point) SV-40 was added thereto, followed by gentle stirring. […] After completion of the inactivation, the inactivated solution was centrifuged at 3,000 rpm for 1 minute and the supernatant was used for the evaluation of virus inactivation.
(§1) Evaluation of virus inactivation was performed by TCID50 using a 96-well microplate. In a 25-cm^2 cell culture flask, a CV-1 cell (simian kidney derived cell), which is a proliferating cell of SV-40, was cultivated in a 10% fetal bovine serum-added MEM medium for 3 days for proliferation. Thereafter, the cells were floated with 0.5 mL of 0.05% trypsin-EDTA, to prepare a cell suspension in 25 mL of the 10% fetal bovine serum-added MEM medium.
(§2) After 90 μL of the cell suspension was added to each well of the 96-well microplate, 10 μL of the reaction mixture (the above-mentioned supernatant) was added to each well of the first column of the 96-well microplate and pipetting was performed to stir the resultant. Further, 10 μL of the solution in each well of the first column was added to each well of the second column of the microplate to perform 10-fold gradual dilution operation. This operation was repeated up to the wells of the twelfth column of the microplate. The microplate was incubated in a 5% carbon dioxide gas incubator at 37° C. for 10 days. Then, a cytopathic effect (CPE) by SV-40 was observed using an optical microscope, and TCID50 were calculated as logarithmic values (log10).
(§3) At the same time, TCID50 of a positive control, in which a phosphate buffer was added instead of the platinum compound, was calculated as a logarithmic value (log10). A value obtained by subtracting TCID50 of the inactivated solution from TCID50 of the positive control was defined as a killing effect.
In FIG. 3, the inactivation effect means a value obtained by subtracting TCID50 of the inactivated solution (logarithmic value (log10)) from TCID50 of the above-mentioned positive control (logarithmic value (log10)).

[2] = test system: Simian Virus 40 (SV-40); assay: Virus inactivation of SV-40 in RC-MAP using the blood bag system (Example 2), TCID50 on CV-1 cells; assay type: cell-based; conditions: for inactivation effect (positive control TCID50 minus inactivated solution TCID50): 7 hours; for TCID50 of the inactivated solution: room temperature (in the dark) 7 hours, positive control 6.0 log10
Protocol: Blood was collected from healthy humans and RC-MAP (concentrated erythrocyte preparation) was prepared, which was introduced into the blood bag 1 (400-mL CPDA blood bag) in the blood bag system shown in FIG. 2. Thereafter, 10^8 TCID50/mL (50% infection endpoint) of SV-40 per 2 mL of RC-MAP was added to the blood bag 1 from the air-bleeding tube 10 by using a syringe, and the blood bag 1 was gently stirred.
Thereafter, the blood bag was stirred gently, and the resultant was allowed to react at room temperature (in the dark) for 7 hours to effect inactivation. After completion of the inactivation, 4 mL of the inactivated solution was sampled from the blood bag 1 and centrifuged at 3,000 rpm for 1 minute. The supernatant was used for the evaluation of virus inactivation.
as §1, §2
as §3, with “effect (inactivation effect).” for “effect.”
In FIG. 4, the inactivation effect means a value obtained by subtracting TCID50 of the inactivated solution (logarithmic value (log10)) from TCID50 of the above-mentioned positive control (logarithmic value (log10)).

[3] = test system: initial culture cells of Ehrlich cancer; conditions: cited from earlier work
[4] = test system: Mouse Hepatitis Virus (MHV); assay: Virus inactivation of MHV in RC-MAP (Example 4), TCID50 on DBT cells; assay type: cell-based; conditions: 1.67 mM solution, 7 hours
Protocol: Thereafter, 2 mL of RC-MAP was sampled in a 15-mL centrifuging tube aseptically, and 2 mL of 10^7 TCID50/mL MHV was added thereto, followed by gentle stirring. […] After completion of the inactivation, the inactivated solution was centrifuged at 3,000 rpm for 1 minute and the supernatant was used for the evaluation of virus inactivation.
Evaluation of virus inactivation was performed by TCID50 using a 96-well microplate. In a 25-cm^2 cell culture flask, a DBT cell, which is a proliferating cell of MHV, was cultivated in a 5% fetal bovine serum-added MEM medium for 3 days for proliferation. Thereafter, the cells were floated with 0.5 mL of 0.05% trypsin-EDTA, to prepare a cell suspension in 25 mL of the 10% fetal bovine serum-added MEM medium.
After 90 μL of this cell suspension was added to each well of the 96-well microplate, 10 μL of the solution was added to each well of the first column of the 96-well microplate and pipetting was performed to stir the resultant. […] Then, a cytopathic effect (CPE) by MHV was observed using an optical microscope, and TCID50 was calculated as a logarithmic value (log10). At the same time, TCID50 of a positive control, in which a phosphate buffer was added instead of the platinum compound, was calculated as a logarithmic value (log10). […]

[5] = test system: Yersinia enterocolitica; assay: Bacteria inactivation of Yersinia enterocolitica in RC-MAP (Example 5), colony count; assay type: cell-based; conditions: for Number of survival bacteria: RC-MAP, 7 hours
Protocol: After gentle stirring, the resultant was allowed to react at room temperature (in the dark) for 7 hours to effect inactivation.
This was cultivated at 31° C. for 2 days.
Note that solution to which no cisplatin was added was defined as a positive control. A bacteria inactivation effect was defined by a value obtained by subtracting the number of survival bacteria (logarithmic value (log10)) in cisplatin-added inactivated solution from the number of survival bacteria (logarithmic value (log10)) in the positive control.

[6] = test system: Human Cytomegalovirus (HCMV); assay: Virus inactivation of HCMV in RC-MAP (Example 3), TCID50 on HEL cells; assay type: cell-based; conditions: 1.67 mM solution, 7 hours
Protocol: In the blood bag 1 (a 400-mL CPDA blood bag) in the blood bag system shown in FIG. 1, RC-MAP (concentrated erythrocyte preparation) was prepared from blood collected from healthy humans. Thereafter, 2 mL of RC-MAP was sampled in a 15-mL centrifuging tube aseptically, and 2 mL of 10^7 TCID50/mL HCMV was added thereto, followed by gentle stirring. […] After completion of the inactivation, the inactivated solution was centrifuged at 3,000 rpm for 1 minute and the supernatant was used for the evaluation of virus inactivation.
Evaluation of virus inactivation was performed by TCID50 using a 96-well microplate. In a 25-cm^2 cell culture flask, a HEL cell (primary human embryonic lung fibroblasts cell), which is a proliferating cell of HCMV, was cultivated in a 10% fetal bovine serum-added MEM medium for 3 days for proliferation. […]
After 90 μL of this cell suspension was added to each well of the 96-well microplate, 10 μL of the solution (the above-mentioned supernatant) was added to each well of the first column of the 96-well microplate and pipetting was performed to stir the resultant. […] Then, a cytopathic effect (CPE) by HCMV was observed using an optical microscope, and TCID50 was calculated as a logarithmic value (log10) . At the same time, TCID50 of a positive control, in which a phosphate buffer was added instead of the platinum compound, was calculated as a logarithmic value (log10).

[7] = test system: Yersinia enterocolitica
Protocol: In the blood bag 1 (400-mL CPDA blood bag) of the blood bag system shown in FIG. 1, RC-MAP (concentrated erythrocyte preparation) was prepared from blood collected from healthy humans. […] To the resultant was added 2 mL of a 168 mM L-methionine solution having dissolved L-methionine in physiological saline, for a reaction at room temperature for 30 minutes.
Similarly, as neutralizing agents, L-methionine solutions having concentrations of 84 mM, 42 mM, 21 mM, 10.5 mM, 5.25 mM, 2.63 mM, and 1.31 mM, respectively, obtained by dissolving L-methionine in physiological saline or sodium thiosulfate solutions having concentrations of 168 mM, 84 mM, 42 mM, 21 mM, 10.5 mM, 5.25 mM, 2.63 mM, and 1.31 mM, respectively, obtained by dissolving sodium thiosulfate in physiological saline were used to effect a reaction. […] Thereafter, 10 μL of 10^8 CFU/mL Yersinia enterocolitica was added to each solution, and the number of bacterial cells after stirring was measured.
Measurement of bacterial cells was conducted on solutions obtained by repeating 3 times the 10-fold gradual dilution operation consisting of adding 1 mL of the inactivated solution to 9 mL of sterilized physiological saline, stirring the mixture by using a touch mixer, and further adding 1 mL of the resultant to 9 mL of physiological saline for dilution. […], 1 mL or 100 μL of the diluted solution in each stage was mixed in a petri dish having a diameter of 9 cm and containing 15 mL soybean casein digest agar medium. This was cultivated at 31° C. for 2 days. The number of colonies emerged was defined as number of survival bacteria, and a logarithmic value (log10) thereof was defined as a neutralization effect.

[8] = test system: SV-40; conditions: 3.5 mM cisplatin solution then 175 mM sodium thiosulfate solution
Protocol: as §1
as §2, with “[…] A value obtained by subtracting TCID50 of the inactivated solution from TCID50 of the positive control was defined as” for “Then,”, “killing effect.” for “cytopathic effect (CPE) by SV-40 was observed using an optical microscope, and TCID50 were calculated as logarithmic values (log10).”

N.N.O=C([O-])C1(C(=O)[O-])CCC1.[Pt+2] [carboplatin]
inactivation effect (positive control TCID50 minus inactivated solution TCID50) ([1]; 3.5 mM solution): 1.00 log10
TCID50 of the inactivated solution ([1]; 3.5 mM solution): 5.50 log10
inactivation effect (positive control TCID50 minus inactivated solution TCID50) ([2]; 3.5 mM solution): 1.5 log10
TCID50 of the inactivated solution ([2]; 3.5 mM solution): 4.5 log10

N.N.[Cl][Pt][Cl] [cisplatin]
effective concentration against cancer cells (antiviral activity (IC50)) [3]: 0.25 µg/mL
inactivation effect (positive control TCID50 minus inactivated solution TCID50) ([1]; 1.67 mM solution): 5.25 log10
TCID50 of the inactivated solution ([1]; 1.67 mM solution): 1.25 log10
MHV killed (MHV inactivation effect) [4]: 4.00 log10
Bacteria killing effect ([5]; cisplatin 0.0209 mM): 0.18 log10
Number of survival bacteria ([5]; cisplatin 0.0209 mM): 4.82 log10
Bacteria killing effect ([5]; cisplatin 0.042 mM): 0.48 log10
Number of survival bacteria ([5]; cisplatin 0.042 mM): 4.52 log10
Bacteria killing effect ([5]; cisplatin 0.083 mM): 1.21 log10
Number of survival bacteria ([5]; cisplatin 0.083 mM): 3.79 log10
Bacteria killing effect ([5]; cisplatin 0.17 mM): 2.20 log10
Number of survival bacteria ([5]; cisplatin 0.17 mM): 2.80 log10
Bacteria killing effect ([5]; cisplatin 0.33 mM): 2.73 log10
Number of survival bacteria ([5]; cisplatin 0.33 mM): 2.27 log10
Bacteria killing effect ([5]; cisplatin 0.67 mM): 3.52 log10
Number of survival bacteria ([5]; cisplatin 0.67 mM): 1.48 log10
Bacteria killing effect ([5]; cisplatin 1.33 mM): 4.94 log10
Number of survival bacteria ([5]; cisplatin 1.33 mM, positive control 5.00 log10): 0.06 log10
HCMV killed (anti-HCMV inactivation effect) [6]: 4.00 log10
inactivation effect (positive control TCID50 minus inactivated solution TCID50) ([2]; 1.67 mM solution): 5.0 log10
TCID50 of the inactivated solution ([2]; 1.67 mM solution): 1.0 log10

CSCC[C@H](N)C(=O)O [methionine, L-methionine]
Number of survival bacteria (neutralization effect) ([7]; methionine 0.44 mM after 4.00 mM cisplatin solution): 0.34 log10
Number of survival bacteria (neutralization effect) ([7]; methionine 0.88 mM after 4.00 mM cisplatin solution): 0.73 log10
Number of survival bacteria (neutralization effect) ([7]; methionine 1.75 mM after 4.00 mM cisplatin solution): 0.89 log10
Number of survival bacteria (neutralization effect) ([7]; methionine 3.5 mM after 4.00 mM cisplatin solution): 1.22 log10
Number of survival bacteria (neutralization effect) ([7]; methionine 7 mM after 4.00 mM cisplatin solution): 1.43 log10
Number of survival bacteria (neutralization effect) ([7]; methionine 14 mM after 4.00 mM cisplatin solution): 1.87 log10
Number of survival bacteria (neutralization effect) ([7]; methionine 28 mM after 4.00 mM cisplatin solution): 3.36 log10
Number of survival bacteria (neutralization effect) ([7]; methionine 56 mM after 4.00 mM cisplatin solution, 30 minutes, same as without cisplatin): 5.1 log10

[NH2][Pt]1([NH2])[O]CC(=O)[O]1 [nedaplatin]
inactivation effect (positive control TCID50 minus inactivated solution TCID50) ([1]; 3.5 mM solution): 4.25 log10
TCID50 of the inactivated solution ([1]; 3.5 mM solution): 2.25 log10
inactivation effect (positive control TCID50 minus inactivated solution TCID50) ([2]; 3.5 mM solution): 3.5 log10
TCID50 of the inactivated solution ([2]; 3.5 mM solution): 2.5 log10

O=S([O-])([O-])=S.[Na+].[Na+] [sodium thiosulfate]
Number of survival bacteria (neutralization effect) ([7]; sodium thiosulfate 0.44 mM after 4.00 mM cisplatin solution): 0.44 log10
Number of survival bacteria (neutralization effect) ([7]; sodium thiosulfate 0.88 mM after 4.00 mM cisplatin solution): 0.86 log10
Number of survival bacteria (neutralization effect) ([7]; sodium thiosulfate 1.75 mM after 4.00 mM cisplatin solution): 1.28 log10
Number of survival bacteria (neutralization effect) ([7]; sodium thiosulfate 3.5 mM after 4.00 mM cisplatin solution): 1.51 log10
Number of survival bacteria (neutralization effect) ([7]; sodium thiosulfate 7 mM after 4.00 mM cisplatin solution): 1.98 log10
Number of survival bacteria (neutralization effect) ([7]; sodium thiosulfate 14 mM after 4.00 mM cisplatin solution): 2.35 log10
Number of survival bacteria (neutralization effect) ([7]; sodium thiosulfate 28 mM after 4.00 mM cisplatin solution): 4.22 log10
Number of survival bacteria (neutralization effect) ([7]; sodium thiosulfate 56 mM after 4.00 mM cisplatin solution, 30 minutes, same as without cisplatin): 5.1 log10
killing effect (inactivation effect of SV-40) after neutralization [8]: no killing effect
TCID50 after inactivator and neutralizing agent ([8]; 30 minutes, positive control 6.00 log10): 6.00 log10
